For orientation: IC50 means the concentration at which inhibition is half-maximal.

The source of these data is ChEMBL document CHEMBL2086262, “Ligand-based designing, in silico screening, and biological evaluation of new potent fructose-1,6-bisphosphatase (FBPase) inhibitors” (Eur J Med Chem, 2012).

Molecules are shown by their SMILES.

This assay can be described thus: Inhibition of human recombinant FBPase using fructose-1,6-biphosphate as substrate incubated for 3 mins prior to substrate addition by spectrophotometric analysis.

With `CCOc1cc2nc(C(F)(F)F)nc(Nc3cccc(-c4csc(C)n4)c3)c2cc1OCC`, the IC50 was > 10 µM.

Take `NC(=O)CCc1c(C(=O)O)[nH]c2cc(Cl)cc(Cl)c12`: the half-maximal inhibitory concentration (IC50) stood at 2.2 µM.

For `CCOc1cc2ncnc(Nc3cccc(I)c3)c2cc1OCC`, the IC50 was found to be 2.1 µM. As to `CCOc1cc2ncnc(Nc3cc(-c4csc(C)n4)ccc3F)c2cc1OCC`, the IC50 amounted to 0.48 µM.

`CCCc1nc(-c2cccc(Nc3ncnc4cc(OCC)c(OCC)cc34)c2)cs1`: the half-maximal inhibitory concentration (IC50) is > 10 µM. As for `CCOc1cc2ncnc(Nc3cccc(C(=O)CBr)c3)c2cc1OCC`, the figure is > 10 µM; as for `COCCOc1cc2ncnc(Nc3cccc(Br)c3)c2cc1OCCOC`, > 10 µM. The result for `O=C(CCc1c(C(=O)O)[nH]c2cc(Cl)cc(Cl)c12)NO` reads 1.5 µM; that for `CCOc1cc2ncnc(Nc3cccc(-c4nc(C(N)=O)cs4)c3)c2cc1OCC`, 0.83 µM. The result for `CCOc1cc2ncnc(Nc3cccc(Br)c3)c2cc1[N+](=O)[O-]` reads 3.6 µM; that for `O=[N+]([O-])c1cc2c(Nc3cccc(Br)c3)ncnc2cc1Cl`, > 10 µM. With `CCOc1cc2ncnc(Nc3cccc(-c4csc(C(N)=O)n4)c3)c2cc1OCC`, the IC50 was found to be 0.93 µM. As for `NC(=O)c1[nH]c2cc(Cl)cc(Cl)c2c1CCC(=O)O`, the figure is > 10 µM; as for `CCOc1cc2ncnc(Nc3ccc(Cl)c(-c4csc(C)n4)c3)c2cc1OCC`, 5.3 µM.

As to `CCCCOc1ccc2ncnc(Nc3cccc(Br)c3)c2c1`, the IC50 is > 10 µM.

Take `CCOc1cc2ncnc(Nc3cccc(-c4csc(NN)n4)c3)c2cc1OCC`: the concentration for half-maximal inhibition (IC50) was determined as 4.5 µM. As for `CCOc1cc2ncnc(Nc3cc(-c4csc(C)n4)cc(C(F)(F)F)c3)c2cc1OCC`, the figure is > 10 µM; as for `CCOc1cc2ncnc(Nc3cccc(-c4nc(C)cs4)c3)c2cc1OCC`, 0.65 µM; as for `CCOc1cc2ncnc(Nc3ccc(Cl)c(Cl)c3)c2cc1OCC`, > 10 µM. For `CCOc1cc2ncnc(Nc3cccc(-c4ccccc4)c3)c2cc1OCC`, the half-inhibitory concentration (IC50) is > 10 µM.

For `C#Cc1cccc(Nc2ncnc3cc(OCC)c(OCC)cc23)c1`, the IC50 is 2.4 µM. For the molecule `CCOc1cc2ncnc(Nc3cccc(-c4csc(COC)n4)c3)c2cc1OCC`, the concentration for half-maximal inhibition (IC50) came to 7.3 µM.

For `CCOc1cc2nc(CCN)nc(Nc3cccc(-c4csc(C)n4)c3)c2cc1OCC`, the IC50 stood at 0.22 µM.

With `CCOc1cc2ncnc(Nc3cccc(-c4ccc(C)cc4)c3)c2cc1OCC`, the IC50 is > 10 µM. For `CCOc1cc2ncnc(Nc3cc(-c4csc(C)n4)ccc3C)c2cc1OCC`, the IC50 worked out at 1.8 µM. As for `CCOc1cc2ncnc(Nc3cccc(Cl)c3)c2cc1OCC`, the figure is 1.6 µM; as for `CCOc1cc2c(Nc3cccc(-c4csc(C)n4)c3)ncnc2cc1OC`, 1.2 µM; as for `CCOc1cc2ncnc(Nc3cccc(-c4csc(C(=O)O)n4)c3)c2cc1OCC`, > 10 µM. The result for `CCOc1cc2ncnc(Nc3cccc(C(C)=O)c3)c2cc1OCC` reads > 10 µM. As for `O=C(O)c1[nH]c2cc(Cl)cc(Cl)c2c1CCCO`, the figure is 2.7 µM. For the molecule `CCOc1cc2nc(CCCCl)nc(Nc3cccc(-c4csc(C)n4)c3)c2cc1OCC`, the half-inhibitory concentration (IC50) is 4.1 µM.

As to `CCOc1cc2ncnc(Nc3cccc(C#N)c3)c2cc1OCC`, the IC50 is > 10 µM.

On to `CCN(CC)c1nc(Nc2cccc(Br)c2)c2cc(OC)c(OC)cc2n1`, for which the IC50 was > 10 µM. With `COc1cc2c(Nc3cccc(-c4csc(C)n4)c3)ncnc2cc1OC(C)C`, the IC50 came out at 2.3 µM. The result for `CCOc1cc2ncnc(Nc3cccc(Br)c3)c2cc1OCC` reads 1.7 µM; that for `CCOc1cc2ncnc(Nc3cccc(-c4ccco4)c3)c2cc1OCC`, 1.4 µM.

As to `CCOc1cc2ncnc(Nc3cccc(-c4coc(C)n4)c3)c2cc1OCC`, the IC50 amounted to 0.5 µM. The result for `CCOc1cc2ncnc(Nc3cccc(-c4csc(NC)n4)c3)c2cc1OCC` reads 0.8 µM; that for `CCOc1cc2ncnc(Nc3cccc(-c4ccccc4C)c3)c2cc1OCC`, > 10 µM; that for `CCOc1cc2ncnc(Nc3cccc(-c4csc(Cc5ccccc5)n4)c3)c2cc1OCC`, > 10 µM. As for `CCOc1cc2nc(CC(C)C)nc(Nc3cccc(Br)c3)c2cc1OCC`, the figure is > 10 µM; as for `CCOc1cc2nc(CC)nc(Nc3cccc(-c4csc(C)n4)c3)c2cc1OCC`, 1.5 µM. As for `CCOc1cc2ncnc(Nc3cccc(-c4csc(N(C)C)n4)c3)c2cc1OCC`, the figure is 8 µM; as for `CCOc1cc2ncnc(Nc3cccc(-c4csc(C5CC5)n4)c3)c2cc1OCC`, 0.83 µM; as for `CCOc1cc2ncnc(Nc3cc(-c4csc(C)n4)c(F)cc3F)c2cc1OCC`, > 10 µM. For `CCOc1cc2ncnc(Nc3cccc(F)c3)c2cc1OCC`, the half-inhibitory concentration (IC50) turned out to be 9.2 µM.

As for `Cc1nc(-c2cccc(Nc3ncnc4ccccc34)c2)cs1`, the half-maximal inhibitory concentration (IC50) was > 10 µM.

On to `CCOc1cc2ncnc(Nc3ccc(F)c(Cl)c3)c2cc1OCC`, for which the IC50 was 0.53 µM. The result for `CCOc1cc2ncnc(Nc3cccc(-c4csc(-c5ccccc5)n4)c3)c2cc1OCC` reads > 10 µM; that for `CCOc1cc2nc(CS(C)(=O)=O)nc(Nc3cccc(-c4csc(C)n4)c3)c2cc1OCC`, 2.1 µM; that for `COc1cc(-c2ccc(OC)nc2)c2oc(NS(=O)(=O)c3cc(Cl)ccc3Cl)nc2c1`, 3.5 µM. The result for `CCOc1cc2nc(C)nc(Nc3cccc(-c4csc(C)n4)c3)c2cc1OCC` reads 1 µM; that for `O=C(O)CCc1c(C(=O)NO)[nH]c2cc(Cl)cc(Cl)c12`, > 10 µM. Turning to `COCCOc1ccc2ncnc(Nc3cccc(Br)c3)c2c1`, the IC50 is 2.9 µM.

`COc1cc2nc(C)nc(Nc3cccc(Br)c3)c2cc1OC`: the IC50 was found to be 4.5 µM.

With `CCOc1cc2nc(CS(C)(=O)=O)nc(Nc3cccc(Br)c3)c2cc1OCC`, the concentration for half-maximal inhibition (IC50) was > 10 µM.

With `COc1cc2c(Nc3cccc(-c4csc(C)n4)c3)ncnc2cc1OC1CCCC1`, the 50% inhibitory concentration (IC50) was > 10 µM. As for `CCCc1nc(Nc2cccc(-c3csc(C)n3)c2)c2cc(OCC)c(OCC)cc2n1`, the figure is 1.4 µM. The result for `CCOc1cc2ncnc(Nc3ccccc3)c2cc1OCC` reads > 10 µM. As for `CCOc1cc2nc(CCCl)nc(Nc3cccc(-c4csc(C)n4)c3)c2cc1OCC`, the figure is 1 µM.

For the molecule `CCOc1cc2nc(CCl)nc(Nc3cccc(-c4csc(C)n4)c3)c2cc1OCC`, the 50% inhibitory concentration (IC50) is 0.87 µM. The result for `CCOc1cc2ncnc(Nc3cccc(-c4cccnc4)c3)c2cc1OCC` reads 1.4 µM.

Regarding `CN(C)C(=O)CCc1c(C(=O)O)[nH]c2cc(Cl)cc(Cl)c12`, the half-maximal inhibitory concentration (IC50) came to 1.7 µM. The result for `CCOc1cc2ncnc(Nc3cccc(-c4cnc(C)o4)c3)c2cc1OCC` reads 4 µM. As for `CCOc1cc2ncnc(Nc3cccc(-c4csc(C)n4)c3)c2cc1OCC`, the figure is ≥ 0.64 µM; as for `CCCOc1cc2ncnc(Nc3cccc(-c4csc(C)n4)c3)c2cc1OC`, ≥ 5.6 µM. As for `CCOc1cc2ncnc(Nc3cccc(-c4cscn4)c3)c2cc1OCC`, the figure is 0.39 µM.

Take `CCCOc1cc2ncnc(Nc3cccc(-c4csc(C)n4)c3)c2cc1OCC`: the IC50 came to 1 µM. As for `C#Cc1cccc(Nc2ncnc3cc(OC)c(OC)cc23)c1`, the figure is 0.9 µM. The result for `CCC(C)Oc1cc2ncnc(Nc3cccc(-c4csc(C)n4)c3)c2cc1OC` (stereo not drawn) reads > 10 µM; that for `CCOc1cc2ncnc(Nc3cccc(-c4cccc(C)c4)c3)c2cc1OCC`, > 10 µM. The result for `Nc1ncnc2c1ncn2[C@@H]1O[C@H](COP(=O)(O)O)[C@@H](O)[C@H]1O` [ADENOSINE PHOSPHATE] reads 12.3 µM. In the case of `CCOc1cc2ncnc(Nc3cccc(-c4nccs4)c3)c2cc1OCC`, the IC50 was 0.38 µM.

Take `COc1cc(-c2cccc(N)c2)c2oc(NS(=O)(=O)c3cc(Cl)ccc3Cl)nc2c1`: the IC50 was 0.57 µM. The result for `Nc1cc2c(Nc3cccc(Br)c3)ncnc2cc1Cl` reads > 10 µM; that for `O=C(O)Cc1c(C(=O)O)[nH]c2cc(Cl)cc(Cl)c12`, > 10 µM; that for `COCCOc1cc2c(Nc3cccc(-c4csc(C)n4)c3)ncnc2cc1OC`, > 10 µM.

Take `CCOc1cc2ncnc(Nc3cc(-c4csc(C)n4)ccc3Cl)c2cc1OCC`: the IC50 was found to be 1.7 µM. The result for `CCOc1cc2nc(CN3CCOCC3)nc(Nc3cccc(Br)c3)c2cc1OCC` reads > 10 µM.

`CCOc1cc2nc(-c3ccccc3)nc(Nc3cccc(Br)c3)c2cc1OCC`: the half-inhibitory concentration (IC50) is > 10 µM. The result for `CCOc1cc2ncnc(Nc3cccc(-c4cocn4)c3)c2cc1OCC` reads 3.6 µM. Consider `COc1cc2ncnc(Nc3cccc(-c4csc(C)n4)c3)c2cc1OC`, for which the IC50 was found to be 4.4 µM. As for `CCCOc1cc2c(Nc3cccc(-c4csc(C)n4)c3)ncnc2cc1OC`, the figure is > 10 µM; as for `CCOc1cc2ncnc(Nc3cccc(-c4csc(C)n4)c3)c2cc1OC`, 3.4 µM.

With `CCOC(=O)c1[nH]c2cc(Cl)cc(Cl)c2c1CCC(=O)O`, the IC50 was > 10 µM. With `CCOc1cc2ncnc(Nc3cc(-c4csc(C)n4)ccc3Br)c2cc1OCC`, the half-maximal inhibitory concentration (IC50) is > 10 µM. Consider `COCCOc1cc2c(Nc3cccc(Br)c3)ncnc2cc1OC`, for which the half-maximal inhibitory concentration (IC50) was found to be 5.5 µM. As for `CCOc1cc2ncnc(Nc3cc(-c4csc(C)n4)ccc3OC)c2cc1OCC`, the figure is 0.99 µM; as for `CC(C)Oc1ccc2ncnc(Nc3cccc(Br)c3)c2c1`, > 10 µM; as for `CCOc1cc2nc(CN)nc(Nc3cccc(-c4csc(C)n4)c3)c2cc1OCC`, 1.5 µM. The result for `CCOc1cc2nc(-n3ccnc3)nc(Nc3cccc(-c4csc(C)n4)c3)c2cc1OCC` reads 0.77 µM. The result for `O=C(O)c1ccc2c(Nc3cccc(Br)c3)ncnc2c1` reads > 10 µM; that for `CCOc1cc2nc(Cl)nc(Nc3cccc(-c4csc(C)n4)c3)c2cc1OCC`, 2.6 µM. On to `O=C(O)CCCCc1c(C(=O)O)[nH]c2cc(Cl)cc(Cl)c12`, for which the IC50 worked out at 1.2 µM. The result for `CCNCc1nc(Nc2cccc(-c3csc(C)n3)c2)c2cc(OCC)c(OCC)cc2n1` reads 6 µM. As for `CCOc1cc2nc(CN3CCCC3)nc(Nc3cccc(-c4csc(C)n4)c3)c2cc1OCC`, the figure is 6.1 µM. As for `CN(C)C(=O)c1[nH]c2cc(Cl)cc(Cl)c2c1CCC(=O)O`, the IC50 is > 10 µM. Take `CCOc1ccc(-c2csc(C)n2)cc1Nc1ncnc2cc(OCC)c(OCC)cc12`: the half-inhibitory concentration (IC50) is 1.8 µM.
